The values below come from patent US9920063B2, “Melampomagnolide B derivatives” (Board of Trustees of the University of Arkansas, priority 2013, dated 2018).

“Also recorded” adds a separate entry of the source.

For the first series, the system named is panel of 60 human cancer cell lines. As to the kind of experiment: Screen against a panel of 60 human tumor cell lines (single dose and five dose), panel and sub-panel statements. It counts as cell-based. The following applies: all human tumor cell lines, with the exception of the leukemia cell line subpanel.
Take `C=C1C(=O)O[C@H]2[C@H]1CC/C(COC(=O)N1CCC(F)(F)CC1)=C\CC[C@@]1(C)O[C@@H]21` [Compound 6a, ((1aR,7aS,10aS,10bS,E)-1a-methyl-8-methylene-9-oxo-1a,2,3,6,7,7a,8,9,10a,10b-decahydrooxireno[2′,3′:9,10]cyclodeca[1,2-b]furan-5-yl)methyl-4,4-difluoropiperidine-1-carboxylate]: the “Growth inhibition compared to PTL (1) and DMAPT (2)” value was “generally exhibited improved growth inhibition against all human tumor cell lines when compared to PTL (1) and DMAPT (2)”. As for `C=C1C(=O)O[C@H]2[C@H]1CC/C(COC(=O)Nc1n[nH]c(SC)n1)=C\CC[C@@]1(C)O[C@@H]21` [Compound 6e, ((1aR,7aS,10aS,10bS,E)-1a-methyl-8-methylene-9-oxo-1a,2,3,6,7,7a,8,9,10a,10b-decahydrooxireno[2′,3′:9,10]cyclodeca[1,2-b]furan-5-yl)methyl-(5-(methylthio)-1H-1,2,4-triazol-3-yl)carbamate], the “Growth inhibition compared to PTL (1) and DMAPT (2)” value is “generally exhibited improved growth inhibition against all human tumor cell lines when compared to PTL (1) and DMAPT (2)”.

Staying with this series, now noted: single concentration 10^−5 M; more than 60% growth inhibition in at least eight cell lines of the panel.
As to `C=C1C(=O)O[C@H]2[C@H]1CC/C(COC(=O)c1cc3cc(OC)ccc3[nH]1)=C\CC[C@@]1(C)O[C@@H]21` [BS-2-01], the “Outcome of initial single dose screening” value is given as “selected for five dose screening”.

For the molecule `C=C1C(=O)OC2C1CCC(COC(=O)c1cc3cc(Cl)ccc3[nH]1)=CCCC1(C)OC21` (stereo not drawn) [BS-2-30], the “Outcome of initial single dose screening” value was “selected for five dose screening”. Still for that read-out and setting: to `C=C1C(=O)OC2C1CCC(COC(=O)c1cc3ccccc3s1)=CCCC1(C)OC21` (stereo not drawn) [BS-2-65] belongs “selected for five dose screening”; to `C=C1C(=O)OC2C1CCC(COC(=O)c1cc3cc(F)ccc3[nH]1)=CCCC1(C)OC21` (stereo not drawn) [BS-2-68], “selected for five dose screening”; to `C=C1C(=O)O[C@H]2[C@H]1CC/C(COC(=O)NCCN1CCCC1)=C\CC[C@@]1(C)O[C@@H]21` [Compound 6b, ((1aR,7aS,10aS,10bS,E)-1a-methyl-8-methylene-9-oxo-1a,2,3,6,7,7a,8,9,10a,10b-decahydrooxireno[2′,3′:9,10]cyclodeca[1,2-b]furan-5-yl)methyl-(2-(pyrrolidin-1-yl)ethyl)carbamate], “selected for a five-dose screening”. Same read-out and setting: for `C=C1C(=O)O[C@H]2[C@H]1CC/C(COC(=O)NCCc1ccccn1)=C\CC[C@@]1(C)O[C@@H]21` [Compound 6c, ((1aR,7aS,10aS,10bS,E)-1a-methyl-8-methylene-9-oxo-1a,2,3,6,7,7a,8,9,10a,10b-decahydrooxireno[2′,3′:9,10]cyclodeca[1,2-b]furan-5-yl)methyl-(2-(pyridin-2-yl)ethyl)carbamate] the value was “selected for a five-dose screening”; for `C=C1C(=O)O[C@H]2[C@H]1CC/C(COC(=O)NCCN1CCOCC1)=C\CC[C@@]1(C)O[C@@H]21` [Compound 6d, ((1aR,7aS,10aS,10bS,E)-1a-methyl-8-methylene-9-oxo-1a,2,3,6,7,7a,8,9,10a,10b-decahydrooxireno[2′,3′:9,10]cyclodeca[1,2-b]furan-5-yl)-methyl(2-morpholinoethyl) carbamate], “selected for a five-dose screening”; for `C=C1C(=O)O[C@H]2[C@H]1CC/C(COC(=O)Nc1n[nH]c(SC)n1)=C\CC[C@@]1(C)O[C@@H]21` [Compound 6e, ((1aR,7aS,10aS,10bS,E)-1a-methyl-8-methylene-9-oxo-1a,2,3,6,7,7a,8,9,10a,10b-decahydrooxireno[2′,3′:9,10]cyclodeca[1,2-b]furan-5-yl)methyl-(5-(methylthio)-1H-1,2,4-triazol-3-yl)carbamate], “selected for a five-dose screening”. Still for that read-out and setting: to `C=C1C(=O)O[C@H]2[C@H]1CC/C(COC(=O)NCCN1CCCCC1)=C\CC[C@@]1(C)O[C@@H]21` [JVM 2-13] belongs “selected for a five-dose screening”. Turning to `C=C1C(=O)O[C@H]2[C@H]1CC/C(COC(=O)OCCCN1CCCCC1)=C\CC[C@@]1(C)O[C@@H]21` [JVM 2-26], the “Outcome of initial single dose screening” value was “selected for a five-dose screening”. Consider `C=C1C(=O)O[C@H]2[C@H]1CC/C(COC(=O)NCCCCCCO)=C\CC[C@@]1(C)O[C@@H]21` [JVM 2-31], for which the “Outcome of initial single dose screening” value is “selected for a five-dose screening”. `C=C1C(=O)O[C@H]2[C@H]1CC/C(COC(=O)OCCN(C)C)=C\CC[C@@]1(C)O[C@@H]21` [JVM 2-35]: the “Outcome of initial single dose screening” value is “selected for a five-dose screening”. On the same count and under the same terms, for `C=C1C(=O)O[C@H]2[C@H]1CC/C(COC(=O)OC)=C\CC[C@@]1(C)O[C@@H]21` [JVM 2-40] the value was “selected for a five-dose screening”; for `C=C1C(=O)O[C@H]2[C@H]1CC/C(COC(=O)N1CCN(C)CC1)=C\CC[C@@]1(C)O[C@@H]21` [JVM 2-44], “selected for a five-dose screening”; for `C=C1C(=O)O[C@H]2[C@H]1CC/C(COC(=O)NCCO)=C\CC[C@@]1(C)O[C@@H]21` [JVM 2-50], “selected for a five-dose screening”.

In the case of `C=C1C(=O)O[C@H]2[C@H]1CC/C(COC(=O)NC)=C\CC[C@@]1(C)O[C@@H]21` [JVM 2-57], the “Outcome of initial single dose screening” value was “selected for a five-dose screening”.

Take `C=C1C(=O)O[C@H]2[C@H]1CC/C(COC(=O)N1CCC(F)(F)CC1)=C\CC[C@@]1(C)O[C@@H]21` [JVM 2-66]: the “Outcome of initial single dose screening” value is reported as “selected for a five-dose screening”. Take `C=C1C(=O)O[C@H]2[C@H]1CC/C(COC(=O)CCC(=O)N1CCC(C)CC1)=C\CC[C@@]1(C)O[C@@H]21` [JVM 2-70]: the “Outcome of initial single dose screening” value is given as “selected for a five-dose screening”. Same read-out and setting: to `C=C1C(=O)O[C@H]2[C@H]1CC/C(COC(=S)n1ccnc1)=C\CC[C@@]1(C)O[C@@H]21` [JVM 66] belongs “selected for a five-dose screening”; to `C=C1C(=O)O[C@H]2[C@H]1CC/C(COC(=O)CCC(=O)NCc1ccc(Cl)nc1)=C\CC[C@@]1(C)O[C@@H]21` [JVM 96], “selected for a five-dose screening”.

The same series, now with this note: single concentration of 10^−5 M.
Regarding `C=C1C(=O)O[C@H]2[C@H]1CC/C(CNC(=O)Cc1c[nH]c3ccccc13)=C\CC[C@@]1(C)O[C@@H]21` [JVM 4-14], the “Activity in NCI single dose screen” value was “potent activity against all leukemia lines tested as well as some NSCLC, colon cancer, melanoma, renal cancer and breast cancer cell lines; also recorded: moderate activity against CNS cancer and ovarian cancer”.

As for `C=C1C(=O)O[C@H]2[C@H]1CC/C(CNC(=O)c1cc3ccccc3[nH]1)=C\CC[C@@]1(C)O[C@@H]21` [JVM 4-19], the “Activity in NCI single dose screen” value was “did not show potent activity against leukemia cell lines; also recorded: potent activity against the majority of colon cancer, melanoma, renal cancer, prostate cancer and breast cancer cell lines tested; also recorded: moderate activity against NSCLC, CNS cancer and ovarian cancer cell lines”.

The series is the same for the next values; noted with them: sub-panel of human leukemia cells.
Turning to `C=C1C(=O)O[C@H]2[C@H]1CC/C(COC(=O)N1CCC(F)(F)CC1)=C\CC[C@@]1(C)O[C@@H]21` [Compound 6a, ((1aR,7aS,10aS,10bS,E)-1a-methyl-8-methylene-9-oxo-1a,2,3,6,7,7a,8,9,10a,10b-decahydrooxireno[2′,3′:9,10]cyclodeca[1,2-b]furan-5-yl)methyl-4,4-difluoropiperidine-1-carboxylate], the “Antileukemic activity compared to parent compound MMB” value was “more potent than the parent compound”. `C=C1C(=O)O[C@H]2[C@H]1CC/C(COC(=O)Nc1n[nH]c(SC)n1)=C\CC[C@@]1(C)O[C@@H]21` [Compound 6e, ((1aR,7aS,10aS,10bS,E)-1a-methyl-8-methylene-9-oxo-1a,2,3,6,7,7a,8,9,10a,10b-decahydrooxireno[2′,3′:9,10]cyclodeca[1,2-b]furan-5-yl)methyl-(5-(methylthio)-1H-1,2,4-triazol-3-yl)carbamate]: the “Antileukemic activity compared to parent compound MMB” value was “more potent than the parent compound”.

A further series deals with M9 ENL cells. Nature of the series: cells. The following applies: 24 h.
Protocol: Carbamate and carbonate derivatives of MMB were also screened for activity against M9 ENL cells at concentrations of 5, 10 and 20 μM (FIG. 10). […] Additionally, succinic amide derivatives of MMB were screened for activity against M9 ENL cells at concentrations of 5, 10 and 20 μM (FIG. 11).
Ester and amide derivatives of melampomagnolide B were screened for anti-leukemic activity against M9ENL AML cell lines (FIG. 12; FIG. 14; FIG. 15; FIG. 16). For each compound, in vitro cell culture studies were performed in which a range of concentrations (0.25-20 μM) was tested for cytotoxicity against leukemia cell lines, primary leukemia specimens and normal bone marrow controls.
Regarding `C=C1C(=O)O[C@H]2[C@H]1CC/C(COC(=O)c1cc(OC)c(OC)c(OC)c1)=C\CC[C@@]1(C)O[C@@H]21` [JVM 3-22], the midpoint of the response, the EC50, lay at 4.7 µM. The same measure, in the same setting: to `C=C1C(=O)O[C@H]2[C@H]1CC/C(COC(=O)c1ccc(Br)cc1)=C\CC[C@@]1(C)O[C@@H]21` [JVM 3-30] belongs 3.3 µM; to `C=C1C(=O)O[C@H]2[C@H]1CC/C(COC(=O)c1ccc3ccccc3c1)=C\CC[C@@]1(C)O[C@@H]21` [JVM 3-36, ((1aR,7aS,10aS,10bS,E)-1a-methyl-8-methylene-9-oxo-1a,2,3,6,7,7a,8,9,10a,10b-decahydrooxireno[2′,3′:9,10]cycodeca[1,2-b]furan-5-yl)methyl 2-naphthoate], 1.7 µM. The same measure, in the same setting: to `C=C1C(=O)O[C@H]2[C@H]1CC/C(COC(=O)c1cccc3ccccc13)=C\CC[C@@]1(C)O[C@@H]21` [JVM 3-38] belongs 2.9 µM; to `C=C1C(=O)O[C@H]2[C@H]1CC/C(COC(=O)c1ccc(C#N)cc1)=C\CC[C@@]1(C)O[C@@H]21` [JVM 3-39], 11 µM.

Consider `C=C1C(=O)O[C@H]2[C@H]1CC/C(COC(=O)c1ccc(Cl)cc1)=C\CC[C@@]1(C)O[C@@H]21` [JVM 3-41], for which the EC50 (commonly the concentration giving half of the maximal effect) came to 13 µM. Regarding `C=C1C(=O)O[C@H]2[C@H]1CC/C(COC(=O)c1ccc(OC)cc1OC)=C\CC[C@@]1(C)O[C@@H]21` [JVM 3-44], the midpoint of the response, the EC50, lay at 3.5 µM.

In turn, `C=C1C(=O)O[C@H]2[C@H]1CC/C(C(=O)N1CCN(C)CC1)=C\CC[C@@]1(C)O[C@@H]21` [JVM 3-46] displayed an EC50 of 28 µM. The same measure, in the same setting: for `C=C1C(=O)O[C@H]2[C@H]1CC/C(C(=O)N1CCC(F)(F)CC1)=C\CC[C@@]1(C)O[C@@H]21` [JVM 3-50] the value was 3.5 µM; for `C=C1C(=O)O[C@H]2[C@H]1CC/C(C(=O)N1CCC(C)CC1)=C\CC[C@@]1(C)O[C@@H]21` [JVM 3-51], 12 µM. Same read-out and setting: to `C=C1C(=O)O[C@H]2[C@H]1CC/C(C(=O)N1CCCCC1)=C\CC[C@@]1(C)O[C@@H]21` [JVM 3-52] belongs 8.3 µM.

In the case of `C=C1C(=O)O[C@H]2[C@H]1CC/C(C(=O)n1ccnc1C)=C\CC[C@@]1(C)O[C@@H]21` [JVM 3-57], the EC50 was determined as 5.9 µM.

In the next series the test system is M9 ENL cells.
Test: not given
To be noted: M9ENL AML cell lines; 24 hours of drug exposure.
`C=C1C(=O)O[C@H]2[C@H]1CC/C(COC(=O)c1cc3cc(OC)ccc3[nH]1)=C\CC[C@@]1(C)O[C@@H]21` [BS-2-01] came in with an EC50 of 2.2 µM. Same read-out and setting: to `C=C1C(=O)O[C@H]2[C@H]1CC/C(COC(=O)c1ccc(Cl)nc1)=C\CC[C@@]1(C)O[C@@H]21` [JVM 340] belongs 11 µM.

The series is the same for the next values; noted with them: M9 ENL cells; lowest concentration tested (5, 10 and 20 μM tested).
`C=C1C(=O)O[C@H]2[C@H]1CC/C(COC(=O)OCCN1CCCC1)=C\CC[C@@]1(C)O[C@@H]21` [JVM 2-59]: the “Reduction of cell viability” value is on record as “greater than 50%”. Turning to `C=C1C(=O)O[C@H]2[C@H]1CC/C(COC(=O)OCCN1CCOCC1)=C\CC[C@@]1(C)O[C@@H]21` [JVM 2-60], the “Reduction of cell viability” value is recorded as “greater than 50%”. On to `C=C1C(=O)O[C@H]2[C@H]1CC/C(COC(=O)N1CCC(F)(F)CC1)=C\CC[C@@]1(C)O[C@@H]21` [JVM 2-66], for which the “Reduction of cell viability” value is “greater than 50%”. On the same count and under the same terms, for `C=C1C(=O)O[C@H]2[C@H]1CC/C(COC(=O)CCC(=O)N1CCC(C)CC1)=C\CC[C@@]1(C)O[C@@H]21` [JVM 2-70] the value was “greater than 50%”.

Still in this series, the particulars now being: M9 cell lines.
Regarding `C=C1C(=O)O[C@H]2[C@H]1CC/C(COC(=O)c1ccc3ccccc3c1)=C\CC[C@@]1(C)O[C@@H]21` [JVM 3-36, ((1aR,7aS,10aS,10bS,E)-1a-methyl-8-methylene-9-oxo-1a,2,3,6,7,7a,8,9,10a,10b-decahydrooxireno[2′,3′:9,10]cycodeca[1,2-b]furan-5-yl)methyl 2-naphthoate], the “Fold greater cytotoxicity than PTL” value is on record as 3 fold.
